Legend:
[1] = test system: wheat leaf blight-causing microbe; test: Antimicrobial activity to wheat leaf blight-causing microbe (PDA plate, hyphal expansion inhibition); format: cell-based, Septoria tritici; settings: 336 h, PDA medium, 25° C., 14 days; for inhibition at 50 µg/mL: Concentration 50 mg/L, read-out: Growth inhibition; for inhibition at 1.25 µg/mL: test sample concentration 1.25 mg/L, read-out: hyphal expansion-inhibiting rate
Protocol: In this Test Example, antimicrobial activity of the inventive compounds to wheat leaf blight-causing microbe was determined and compared with that of the comparative compound (1).

[2] = test system: wheat leaf rust-causing microbe; test: Wheat leaf rust-controlling activity (foliar spray, pot test); format: in vivo, Puccinia recondita; settings: Concentration 25 g/ha; wettable powder sprayed on wheat (Norin No. 61), 9 to 14 days after inoculation
[3] = test system: Wheat fusarium blight-causing microbe (Fusarium graminearum); format: cell-based; settings: 50 mg/L
[4] = test system: Rice blast-causing microbe (Pyricularia oryzae); format: cell-based; settings: 50 mg/L
[5] = test system: wheat powdery mildew-causing microbes; test: Controlling activity to wheat powdery mildew of seed treatment (pot test); format: in vivo, Erysiphe graminis f. sp tritici; settings: 2 mg in DMSO applied to wheat seeds 1 g, 14 to 28 days after seeding
Protocol: Controlling activity to wheat powdery mildew was examined in a pot test. Each of the inventive compounds […]-53, and a comparative compound (1) was weighed in an amount of 2 mg and dissolved in DMSO (18 μl). The solution thus prepared was applied to wheat seeds 1 g in a vial, 8 wheat seeds were seeded in a 80 cm^2 pot. The wheat was grown, as water was supplied from blow, in a greenhouse where wheat powdery mildew-causing microbes are present abundantly. The incidence rate was determined and the controlling rate and additionally the controlling index calculated 14 to 28 days after seeding. The controlling rate was calculated and the wheat powdery mildew controlling index determined according to the following equation: Controlling rate=(1-Incidence rate in treated region/Incidence rate in non-treated region)×100(%) [table]

[6] = test system: Wheat glume blotch-causing microbe (Phaeosphaeria nodorum); test: Antimicrobial activity to various pathogenic microbes: P.n; settings: 50 mg/L
[7] = test system: Wheat eye spot-causing microbe (Pseudocercoporella herpotrichoides); test: Antimicrobial activity to various pathogenic microbes: P.h; settings: 50 mg/L
[8] = test system: Barley loose smut-causing microbe (Ustilago nuda); test: Antimicrobial activity to various pathogenic microbes: U.n; settings: 50 mg/L
[9] = test system: Rice bakanae disease-causing microbe (Gibberella fujikuroi); test: Antimicrobial activity to various pathogenic microbes: G.f; settings: 50 mg/L
Protocol: (§1) An inventive compound was dissolved in dimethylsulfoxide 2 ml. The solution 0.6 ml was added to a PDA medium (potato-dextrose-agar medium) 60 ml at around 60° C.
(§2) A flat plate containing a test microbe (wheat leaf blight-causing microbe) cultured separately was punched into pieces with a cork borer having a diameter of 4 mm and the circular plate obtained was placed on the flat plate media containing the chemical described above. The plates were cultured at 25° C. for 14 days after inoculation and the diameter of the microbial colony was determined. Hyphal expansion-inhibiting rate was calculated according to the following equation: R=100(dc−dt)/dc (wherein, R: hyphal expansion-inhibiting rate (%), dc: diameter of microbial colony on non-treated flat plate, dt: diameter of microbial colony on chemically-treated flat plate).
(§3) The results thus obtained were evaluated in 5 stages according to the criteria below:

[10] = test system: Apple alternaria blotch-causing microbe (Alternaria alternata); test: Antimicrobial activity to various pathogenic microbes: A.m; settings: 50 mg/L
Protocol: as §1, §2
(§4) In this Test Example, the antimicrobial activity of the inventive compounds to various plant disease-causing fungi and industrial material-eroding microorganisms was studied by the method described in Example 1.
as §3
Apple alternaria blotch-causing microbe (Alternaria alternata) A.m

[11] = test system: Sclerotinia rot-causing microbe (Sclerotinia sclerotiorum); test: Antimicrobial activity to various pathogenic microbes: S.s; settings: 50 mg/L
Protocol: as §1, §2, §3
Sclerotinia rot-causing microbe (Sclerotinia sclerotiorum) S.s

[12] = test system: Gray mold-causing microbe (Botrytis cinerea); test: Antimicrobial activity to various pathogenic microbes: B.c; settings: 50 mg/L
[13] = test system: Cucumber Fusarium wilt-causing microbe (Fusarium oxysporum); test: Antimicrobial activity to various pathogenic microbes: F.c; settings: 50 mg/L
Protocol: as §1, §2, §3

[14] = test system: Barley scald-causing microbe (Rhynchosporium secalis); test: Antimicrobial activity to various pathogenic microbes: R.sec; settings: 50 mg/L
Protocol: as §1, §2, §4, §3
Barley scald-causing microbe (Rhynchosporium secalis) R.sec

wheat = test: Damage to wheat (growth inhibition) by seed treatment (pot test); settings: 2 mg in DMSO applied to wheat seeds 1 g, 14 to 28 days after seeding, larger index = smaller damage

Structure (SMILES) | inhibition at 50 µg/mL [1] [%] | inhibition at 1.25 µg/mL [1] [%] | Controlling index [2] | Growth inhibition (hyphal expansion-inhibiting rate grade) F.g [3] | Growth inhibition (hyphal expansion-inhibiting rate grade) P.o [4] | Controlling index Wheat powdery mildew [5] | Growth inhibition (hyphal expansion-inhibiting rate grade) P.n [6] | Growth inhibition (hyphal expansion-inhibiting rate grade) P.h [7] | Growth inhibition (hyphal expansion-inhibiting rate grade) U.n [8] | Growth inhibition (hyphal expansion-inhibiting rate grade) G.f [9] | Growth inhibition (hyphal expansion-inhibiting rate grade) A.m [10] | Growth inhibition (hyphal expansion-inhibiting rate grade) S.s [11] | Growth inhibition (hyphal expansion-inhibiting rate grade) B.c [12] | Growth inhibition (hyphal expansion-inhibiting rate grade) F.c [13] | Growth inhibition (hyphal expansion-inhibiting rate grade) R.sec [14] | Damage index Growth inhibition (wheat)
CCOC(=O)[C@]1(C)CC[C@@H](Cc2ccc(Cl)cc2)[C@]1(O)Cn1cncn1 (racemic) [Compound I-3, ethyl-(1RS,2RS,3SR)-3-(4-chlorobenzyl)-2-hydroxy-1-methyl-2-(1H-1,2,4-triazol-1-ylmethyl)cyclopentanecarboxylate] | > 80 | ≥ 80 | 5 (81 to 100) | 5 (hyphal expansion-inhibiting rate: 80% or more) | 5 (hyphal expansion-inhibiting rate: 80% or more) | 5 (Controlling rate: 40 or more) | 5 (hyphal expansion-inhibiting rate: 80% or more) | 5 (hyphal expansion-inhibiting rate: 80% or more) | 5 (hyphal expansion-inhibiting rate: 80% or more) | 5 (hyphal expansion-inhibiting rate: 80% or more) | 5 (hyphal expansion-inhibiting rate: 80% or more) | 5 (hyphal expansion-inhibiting rate: 80% or more) | 5 (hyphal expansion-inhibiting rate: 80% or more) | 5 (hyphal expansion-inhibiting rate: 80% or more) | 5 (hyphal expansion-inhibiting rate: 80% or more) | 1 (60% or more and less than 80%)
COC(=O)[C@]1(C)CC[C@H](Cc2ccc(F)cc2)[C@@]1(O)Cn1cncn1 (racemic) [Compound I-53, methyl-(1RS, 2SR,3RS)-3-(4-fluorobenzyl)-2-hydroxy-1-methyl-2-(1H-1,2,4-triazol-1-ylmethyl)cyclopentanecarboxylate] | > 80 | ≥ 80 | 5 (81 to 100) | 5 (hyphal expansion-inhibiting rate: 80% or more) | 5 (hyphal expansion-inhibiting rate: 80% or more) | 5 (Controlling rate: 40 or more) | 5 (hyphal expansion-inhibiting rate: 80% or more) | 5 (hyphal expansion-inhibiting rate: 80% or more) | 5 (hyphal expansion-inhibiting rate: 80% or more) | 5 (hyphal expansion-inhibiting rate: 80% or more) | 5 (hyphal expansion-inhibiting rate: 80% or more) | 5 (hyphal expansion-inhibiting rate: 80% or more) | 5 (hyphal expansion-inhibiting rate: 80% or more) | 5 (hyphal expansion-inhibiting rate: 80% or more) | 5 (hyphal expansion-inhibiting rate: 80% or more) | 1 (60% or more and less than 80%)
C=CCOC(=O)[C@]1(C)CC[C@H](Cc2ccc(Cl)cc2)[C@@]1(O)Cn1cncn1 (racemic) [Compound I-134, allyl-(1RS,2SR,3RS)-3-(4-chlorobenzyl)-2-hydroxy-1-methyl-2-(1H-1,2,4-triazol-1-ylmethyl)cyclopentanecarboxylate] | > 80 | – | 5 (81 to 100) | 5 (hyphal expansion-inhibiting rate: 80% or more) | 5 (hyphal expansion-inhibiting rate: 80% or more) | 5 (Controlling rate: 40 or more) | 5 (hyphal expansion-inhibiting rate: 80% or more) | 5 (hyphal expansion-inhibiting rate: 80% or more) | 5 (hyphal expansion-inhibiting rate: 80% or more) | 5 (hyphal expansion-inhibiting rate: 80% or more) | 5 (hyphal expansion-inhibiting rate: 80% or more) | 5 (hyphal expansion-inhibiting rate: 80% or more) | 5 (hyphal expansion-inhibiting rate: 80% or more) | 5 (hyphal expansion-inhibiting rate: 80% or more) | 5 (hyphal expansion-inhibiting rate: 80% or more) | 3 (20% or more and less than 40%)
CCCOC(=O)[C@]1(C)CC[C@H](Cc2ccc(Cl)cc2)[C@@]1(O)Cn1cncn1 (racemic) [Compound I-136, n-propyl-(1RS,2SR,3RS)-3-(4-chlorobenzyl)-2-hydroxy-1-methyl-2-(1H-1,2,4-triazol-1-ylmethyl)cyclopentanecarboxylate] | > 80 | – | 5 (81 to 100) | 5 (hyphal expansion-inhibiting rate: 80% or more) | 5 (hyphal expansion-inhibiting rate: 80% or more) | 5 (Controlling rate: 40 or more) | 5 (hyphal expansion-inhibiting rate: 80% or more) | 5 (hyphal expansion-inhibiting rate: 80% or more) | 5 (hyphal expansion-inhibiting rate: 80% or more) | 5 (hyphal expansion-inhibiting rate: 80% or more) | 5 (hyphal expansion-inhibiting rate: 80% or more) | 5 (hyphal expansion-inhibiting rate: 80% or more) | 5 (hyphal expansion-inhibiting rate: 80% or more) | 5 (hyphal expansion-inhibiting rate: 80% or more) | 5 (hyphal expansion-inhibiting rate: 80% or more) | 4 (1% or more and less than 20%)
CC(C)OC(=O)[C@]1(C)CC[C@H](Cc2ccc(Cl)cc2)[C@@]1(O)Cn1cncn1 (racemic) [Compound I-137, isopropyl-(1RS,2SR,3RS)-3-(4-chlorobenzyl)-2-hydroxy-1-methyl-2-(1H-1,2,4-triazol-1-ylmethyl)cyclopentanecarboxylate] | > 80 | – | 5 (81 to 100) | 5 (hyphal expansion-inhibiting rate: 80% or more) | 5 (hyphal expansion-inhibiting rate: 80% or more) | 5 (Controlling rate: 40 or more) | 5 (hyphal expansion-inhibiting rate: 80% or more) | 5 (hyphal expansion-inhibiting rate: 80% or more) | 5 (hyphal expansion-inhibiting rate: 80% or more) | 5 (hyphal expansion-inhibiting rate: 80% or more) | 5 (hyphal expansion-inhibiting rate: 80% or more) | 5 (hyphal expansion-inhibiting rate: 80% or more) | 5 (hyphal expansion-inhibiting rate: 80% or more) | 5 (hyphal expansion-inhibiting rate: 80% or more) | 5 (hyphal expansion-inhibiting rate: 80% or more) | 5

Reference: patent publication US9440933B2, “Azole derivative, method for producing same, intermediate compound, and agricultural or horticultural chemical agent and industrial material protecting agent” (KUREHA CORPORATION, priority 2011, dated 2016)
